{
  "source": "patent US20260258004A1",
  "about": "“CRYSTALLINE FORMS OF (6S)-5-[4'-FLUORO-2-(TRIFLUOROMETHYL)BIPHENYL-4-YL]-6-METHYL-3,6- DIHYDRO-2H-l,3,4-OXADIAZIN-2-ONE” (Bayer Aktiengesellschaft, priority 2022, published 2026)",
  "assay": "Particle size distribution by laser diffraction (Malvern Panalytical Mastersizer 3000, Fraunhofer)",
  "format": "physicochemical",
  "procedure": "The particle size distribution was measured by laser diffraction using the Malvern Panalytical Mastersizer 3000.\nThe samples are again taken from example 1.6 (probe 1) and example 1.5 (probe 2), the same as used in example 4.\nThe sample to be analyzed is dispersed in 1 drop of Tween 80 the sample is processed according to ISO13320.\nLaser diffraction is an often-used method for determination the particle size of dispersed solid materials. A widened laser beam illuminates a cuvette which contains part of the particles. By diffraction on the particles a characteristic pattern can be mapped on the detector. The resulting diffraction image is the additive overlaying of diffraction images of all particles.\nBesides the mentioned detector two additional detectors are mounted in order to detect diffraction light in forward direction (FA1,9), in wide angle (LA1,2) and in back direction (BS1,2). The turbidity of the sample is measured by an extinction sensor. This is necessary to ensure a low particle concentration which is necessary to avoid wrong results by multiple diffraction of light at several particles.\nThe cuvette used was a wet unit where the suspension is pumped in a closed circuit with a dispersing unit that ensures a separation of single particles by shear forces.\nThe measurement range of the Malvern 3000 covers a particle size from 1 mm (2 mm) down to 20 nm\nThe calculation of the particle size distribution from the diffraction patterns was done on basis of theory of Fraunhofer.\nThis assumption is valid for particle sizes of 10 to 50 μm and above. For smaller particles the light scattering of the particle itself due to optical transparency must be considered which is done in the Mie-theory (not used for our probes). Precondition of the application of the Mie-theory is the knowledge of the refractive and absorption index of the dispersed solids.\nQ3 is the cumulative volume distribution, e.g. D50=Q(50%) indicates 50% of the volume part of the sample is smaller than particle size of 50 μm.\nThe particle size is expressed as an equivalent diameter used in the method recommended by the Malvern Analysis Program and as described in ISO13320.",
  "key": {"[1]": {"details": "without ultrasound (US), listed as Probe 2"}},
  "data": [
    {"molecule": "C[C@@H]1OC(=O)NN=C1c1ccc(-c2ccc(F)cc2)c(C(F)(F)F)c1", "note": "[polymorph C, (6S)-5-[4′-Fluoro-2-(trifluoromethyl)biphenyl-4-yl]-6-methyl-3,6-dihydro-2H-1,3,4-oxadiazin-2-one]", "values": [
      {"measurement": "difference between Q3[50] of untreated sample and sample treated 300 s with ultrasound", "value": "significantly smaller"},
      {"measurement": "D(10)", "setting": "300 s US, listed as Probe2", "value": 14.5, "unit": "μm"},
      {"measurement": "D(50)", "setting": "300 s US, listed as Probe2", "value": 57.3, "unit": "μm"},
      {"measurement": "D(90)", "setting": "300 s US, listed as Probe2", "value": 170, "unit": "μm"},
      {"measurement": "Cumulative volume distribution Q", "setting": "particle size D 0.01 μm, 300 s US", "value": 0, "unit": "%"},
      {"measurement": "Cumulative volume distribution Q", "setting": "particle size D 0.01 μm, without US", "value": 0, "unit": "%"},
      {"measurement": "Cumulative volume distribution Q", "setting": "particle size D 0.0114 μm, 300 s US", "value": 0, "unit": "%"},
      {"measurement": "Cumulative volume distribution Q", "setting": "particle size D 0.0114 μm, without US", "value": 0, "unit": "%"},
      {"measurement": "Cumulative volume distribution Q", "setting": "particle size D 0.0129 μm, 300 s US", "value": 0, "unit": "%"},
      {"measurement": "Cumulative volume distribution Q", "setting": "particle size D 0.0129 μm, without US", "value": 0, "unit": "%"},
      {"measurement": "Cumulative volume distribution Q", "setting": "particle size D 0.0147 μm, 300 s US", "value": 0, "unit": "%"},
      {"measurement": "Cumulative volume distribution Q", "setting": "particle size D 0.0147 μm, without US", "value": 0, "unit": "%"},
      {"measurement": "Cumulative volume distribution Q", "setting": "particle size D 0.0167 μm, 300 s US", "value": 0, "unit": "%"},
      {"measurement": "Cumulative volume distribution Q", "setting": "particle size D 0.0167 μm, without US", "value": 0, "unit": "%"},
      {"measurement": "Cumulative volume distribution Q", "setting": "particle size D 0.0189 μm, 300 s US", "value": 0, "unit": "%"},
      {"measurement": "Cumulative volume distribution Q", "setting": "particle size D 0.0189 μm, without US", "value": 0, "unit": "%"},
      {"measurement": "Cumulative volume distribution Q", "setting": "particle size D 0.0215 μm, 300 s US", "value": 0, "unit": "%"},
      {"measurement": "Cumulative volume distribution Q", "setting": "particle size D 0.0215 μm, without US", "value": 0, "unit": "%"},
      {"measurement": "Cumulative volume distribution Q", "setting": "particle size D 0.0244 μm, 300 s US", "value": 0, "unit": "%"},
      {"measurement": "Cumulative volume distribution Q", "setting": "particle size D 0.0244 μm, without US", "value": 0, "unit": "%"},
      {"measurement": "Cumulative volume distribution Q", "setting": "particle size D 0.0278 μm, 300 s US", "value": 0, "unit": "%"},
      {"measurement": "Cumulative volume distribution Q", "setting": "particle size D 0.0278 μm, without US", "value": 0, "unit": "%"},
      {"measurement": "Cumulative volume distribution Q", "setting": "particle size D 0.0315 μm, 300 s US", "value": 0, "unit": "%"},
      {"measurement": "Cumulative volume distribution Q", "setting": "particle size D 0.0315 μm, without US", "value": 0, "unit": "%"},
      {"measurement": "Cumulative volume distribution Q", "setting": "particle size D 0.0358 μm, 300 s US", "value": 0, "unit": "%"},
      {"measurement": "Cumulative volume distribution Q", "setting": "particle size D 0.0358 μm, without US", "value": 0, "unit": "%"},
      {"measurement": "Cumulative volume distribution Q", "setting": "particle size D 0.0407 μm, 300 s US", "value": 0, "unit": "%"},
      {"measurement": "Cumulative volume distribution Q", "setting": "particle size D 0.0407 μm, without US", "value": 0, "unit": "%"},
      {"measurement": "Cumulative volume distribution Q", "setting": "particle size D 756 μm, 300 s US", "value": 100, "unit": "%"},
      {"measurement": "Cumulative volume distribution Q", "setting": "particle size D 756 μm, without US, listed as Probe 2", "value": 99.65, "unit": "%"},
      {"measurement": "Cumulative volume distribution Q", "setting": "particle size D 859 μm, 300 s US", "value": 100, "unit": "%"},
      {"measurement": "Cumulative volume distribution Q", "setting": "particle size D 859 μm, without US, listed as Probe 2", "value": 99.9, "unit": "%"},
      {"measurement": "Cumulative volume distribution Q", "setting": "particle size D 976 μm, 300 s US", "value": 100, "unit": "%"},
      {"measurement": "Cumulative volume distribution Q", "setting": "particle size D 976 μm, without US, listed as Probe 2", "value": 100, "unit": "%"},
      {"measurement": "Cumulative volume distribution Q", "setting": "particle size D 1110 μm, 300 s US", "value": 100, "unit": "%"},
      {"measurement": "Cumulative volume distribution Q", "setting": "particle size D 1110 μm, without US", "value": 100, "unit": "%"},
      {"measurement": "Cumulative volume distribution Q", "setting": "particle size D 1260 μm, 300 s US", "value": 100, "unit": "%"},
      {"measurement": "Cumulative volume distribution Q", "setting": "particle size D 1260 μm, without US", "value": 100, "unit": "%"},
      {"measurement": "Cumulative volume distribution Q", "setting": "particle size D 1430 μm, 300 s US", "value": 100, "unit": "%"},
      {"measurement": "Cumulative volume distribution Q", "setting": "particle size D 1430 μm, without US", "value": 100, "unit": "%"},
      {"measurement": "Cumulative volume distribution Q", "setting": "particle size D 1630 μm, 300 s US", "value": 100, "unit": "%"},
      {"measurement": "Cumulative volume distribution Q", "setting": "particle size D 1630 μm, without US", "value": 100, "unit": "%"},
      {"measurement": "Cumulative volume distribution Q", "setting": "particle size D 1850 μm, 300 s US", "value": 100, "unit": "%"},
      {"measurement": "Cumulative volume distribution Q", "setting": "particle size D 1850 μm, without US", "value": 100, "unit": "%"},
      {"measurement": "Cumulative volume distribution Q", "setting": "particle size D 2100 μm, 300 s US", "value": 100, "unit": "%"},
      {"measurement": "Cumulative volume distribution Q", "setting": "particle size D 2100 μm, without US", "value": 100, "unit": "%"},
      {"measurement": "Cumulative volume distribution Q", "setting": "particle size D 2390 μm, 300 s US", "value": 100, "unit": "%"},
      {"measurement": "Cumulative volume distribution Q", "setting": "particle size D 2390 μm, without US", "value": 100, "unit": "%"},
      {"measurement": "Cumulative volume distribution Q", "setting": "particle size D 2710 μm, 300 s US", "value": 100, "unit": "%"},
      {"measurement": "Cumulative volume distribution Q", "setting": "particle size D 2710 μm, without US", "value": 100, "unit": "%"},
      {"measurement": "Cumulative volume distribution Q", "setting": "particle size D 3080 μm, 300 s US", "value": 100, "unit": "%"},
      {"measurement": "Cumulative volume distribution Q", "setting": "particle size D 3080 μm, without US", "value": 100, "unit": "%"},
      {"measurement": "Cumulative volume distribution Q", "setting": "particle size D 3500 μm, 300 s US", "value": 100, "unit": "%"},
      {"measurement": "Cumulative volume distribution Q", "setting": "particle size D 3500 μm, without US", "value": 100, "unit": "%"},
      {"measurement": "robustness of crystals", "setting": "ultrasound treatment, compared to polymorph A", "value": "more robust"},
      {"measurement": "D(10)", "setting": "[1]", "value": 69.1, "unit": "μm"},
      {"measurement": "D(50)", "setting": "[1]", "value": 179, "unit": "μm"},
      {"measurement": "D(90)", "setting": "[1]", "value": 380, "unit": "μm"}
    ]}
  ]
}
